The values that follow come from patent publication US9498446B2, “Pharmaceutical compositions resistant to abuse” (Egalet Ltd., priority 2009, dated 2016).

Several values for one entry are separate records, joined by “and”; a condition that tells them apart may be missing. Identical values can stand only once.

The data set can be described thus: Dissolution test of naltrexone from intact and ground tablets. Type of data set: physicochemical. How it is done:
Polylactid acid was injection moulded in a Haake Minijet (Haake MiniJet II, Thermo Electron, Karlsruhe, Germany) as described in Methods. An inner core filled with approximately 25 mg Naltrexone hydrochloride was prepared and closed in both ends with the above mentioned shell composition. The inner core has a size of 8 mm×4.26 mm×2.49 mm. The inner core was placed in the cavity of a larger shell 2 (H: 20 mm; L: 6 mm; B: 6 mm) with the same shell composition and the large shell was filled with placebo matrix composition as described in Methods.
Dissolution tests of naltrexone were performed in accordance to USP 30, NF 25, (711). Apparatus 2 (paddle method). The dissolution medium consisted of phosphate buffer solution pH 6.8. The volume of the dissolution medium was 500 ml and the rotation speed of the paddles was 50 rpm throughout the dissolution rum. The temperature was 37° C. Samples were withdrawn at suitable time intervals and analysed for content of active drug substance by means of HPLC UV detection. Intact tablets n=2 and tablets milled in a Coffee Grinder, Krups GVX242 (n=2) were analyse in dissolution.
The amount of naltrexone was determined by a modified USP method. The technique was reverse phase chromatography, using a Supelco Ascentis Express C18 2.7 μm 4.6*100 mm column. The mobile phase consisted of 1.08 g sodium 1-octanesulphonate, 23.8 g sodium acetate, 1 ml triethylamine, 450 ml methanol and approximately 550 ml water. The HPLC settings were as follows: Isocratic, column temperature 30° C. flow 0.6 ml/min, detection HPLC-UV at 280 nm, injection volume 20 μl with a 6 minutes run time.

Regarding `O=C1CC[C@@]2(O)[C@H]3Cc4ccc(O)c5c4[C@@]2(CCN3CC2CC2)[C@H]1O5` [Naltrexone], the “Amount of naltrexone found in dissolution medium” value runs as follows: (Ground tablet (Coffee Grinder, Krups GVX242), 0.2 hours, phosphate buffer pH 6.8, 100% = 25 mg) 34.1% and 31.5%; (Ground tablet, 0.5 hours) 36.3% and 34.2%; (Ground tablet, 0.8 hours) 36.6% and 34.7%; (Ground tablet, 1.5 hours) 37.4% and 34.9%; (Ground tablet, 20 hours) 39.0% and 37.1%; (Ground tablet, 30 hours) 34.9% and 35.9%.
